System: HSV-1
Assay: JQ1 reactivation (shedding) mouse model
Assay type: in vivo, mice
Conditions: for shedding of HSV from mucosal surfaces: 50 mg/kg
Procedure: FIG. 19. Schematic for JQ1 reactivation experiment. Latent infected mice were divided into three experimental groups to determine the effect of JQ1 on HSV reactivation. As illustrated in the figure, Group 1 and Group 2 were JQ1 groups that received a 50 mg/kg intraperitoneal injection of JQ1. Group 3 was the control group, i.e., no JQ1 injection. Group 1 mice received two injections, the first JQ1 injection at 0 hrs and the second JQ1 injection at 12 hrs. Group 2 mice received one injection at 0 hrs. Group 3 mice received one control injection at 0 hrs. To determine shedding from mucosal surfaces, as an indicator of HSV reactivation, mice were swabbed at 0 hrs (control) and this swab was compared to swabs taken at 24 hours, 48 hours, and 72 hours.
To begin, the mouse model for BET induced shedding was verified. In this model, latent infected mice were divided into three experimental groups to determine the effect of the BET inhibitor, JQ1, on HSV-1 reactivation. FIG. 19. As illustrated, Group 1 and Group 2 were JQ1 groups that received 50 mg/kg intraperitoneal injection of JQ1. Group 3 was the control group, i.e., no JQ1 injection. Group 1 mice received two injections, the first JQ1 injection at 0 hrs and the second JQ1 injection at 12 hrs. Group 2 mice received one injection at 0 hrs. Group 3 mice received one control injection at 0 hrs. To determine shedding from mucosal surfaces, as an indicator of HSV-1 reactivation, mice were swabbed at 0 hrs (control) and this swab was compared to swabs taken at 24 hours, 48 hours, and 72 hours. […] FIG. 20B. […] Compare the onset and duration of viral shedding in JQ1 double dose to JQ1 single dose.

## Cc1sc2c(c1C)C(c1ccc(Cl)cc1)=N[C@@H](CC(=O)OC(C)(C)C)c1nnc(C)n1-2 [JQ1, tert-butyl (S)-2-(4-(4-chlorophenyl)-2,3,9-trimethyl-6H-thieno[3,2-f][1,2,4]triazolo[4,3-a][1,4]diazepin-6-yl)acetate]
Single dose 50 mg/kg intraperitoneal
  time of peak shedding following JQ1 injection: 2 days
Single dose 50 mg/kg intraperitoneal at 0 hrs, swabs 24, 48, 72 hours
  shedding of HSV from mucosal surfaces: Shedding was detected
Two doses 50 mg/kg intraperitoneal at 0 hrs and 12 hrs
  shedding of HSV from mucosal surfaces: Shedding was also detected

Source: US20240301372A1, “TREATMENT FOR HSV-1 USING A MEGANUCLEASE” (priority 2021, published 2024)
